Laboratory results published in patent US6486161B1, “Use of rifamycin derivative for treating mastitis in a domestic animal” (priority 2000, dated 2002).
In brackets after ≈: the same amount, converted by molar mass. Read-outs that look alike come from different tables or passages of the source.

Columns and labels:
[1] = system: S. aureus 6097; assay: MIC, microbroth dilution, strain 6097; type: cell-based, Staphylococcus aureus
Experimental: (§1) Four S. aureus strains were used: S. aureus 30857, a rifampin-resistant isolate: S. aureus 6097, a strain used in the mouse mastitis test and originally from a case of gangrenous bovine mastitis; S. aureus B83-1, derived from the Newbould 305 strain; and S. aureus ATCC 29213, the in vitro control stain recommended by NCCLS.
(§2) All S. aureus strains were maintained on 3 mm glass beads immersed in trypticase soy broth (BBL Microbiology Systems, Cockeysville, Md.) with 10% glycerol and held at −70° C. until revived. Prior to testing, the strains were subcultured on tryptose blood agar base (Difco, Detroit, Mich.) supplemented with 5% sheep blood for 24 hours at 35° C.
(§3) These compounds were dissolved in 95% ethanol, a solution which was then diluted to 10% ethanol with sterile distilled water. Further dilutions were conducted in water.
(§4) MIC (Minimum Inhibitory Concentration) determinations were performed using the microbroth dilution method. (National Committee for Clinical Laboratory Standards, 1990 Approved Standard […]. Methods for dilution antimicrobial susceptibility tests for bacteria that grow aerobically, 3rd edition. National Committee for Clinical Laboratory Standards, Villanova, Pa.) The results are shown in Table 3, wherein R is the alkyl group R in the rifamycin derivative (1).

[2] = system: S. aureus ATCC 29213; assay: MIC, microbroth dilution, strain ATCC 29213; type: cell-based, Staphylococcus aureus
Experimental: as §1, §2, §3, §4

[3] = system: S. aureus B83-1; assay: Mutation frequency for resistance, strain B83-1; type: cell-based, Staphylococcus aureus
Experimental: (§5) The mutation frequency for development of resistance to the rifamycin derivative (1) as compared to rifampin was determined with selected Staphylococcus aureus strains.
as §1, §2, §3
(§6) The mutation frequency for development of resistance to the compounds tested was determined by the following method. A single colony of each strain was removed from the surface of a blood agar plate with a cotton swab, suspended in 5 ml of Mueller-Hinton broth (BBL), and streaked on the entire surface of five Mueller-Hinton agar plates. The plates were incubated overnight under aerobic conditions at 35° C., growth was removed from the agar using a sterile cotton swab, and the bacteria were suspended in 10 ml physiological saline. This bacterial suspension was the inoculum for the mutation frequency determinations. Standard plate counts were performed on the inoculum by performing serial dilutions and plating a 0.1 ml aliquot on the surface of ten Mueller-Hinton agar plates at each concentration. The plates were incubated for 18-24 hours at 35° C. under aerobic conditions and colony counts performed. Mean bacterial counts were calculated for the inoculum with each strain.
(§7) A 0.1 ml aliquot of the inoculum was then used to inoculate the entire surface of ten plates each containing 1, 10, and 100 μg/ml of the test antimicrobial agents. The plates were incubated for 18-24 hours at 35° C. under aerobic conditions and colony counts performed. Mean bacterial counts were calculated for each antimicrobial concentration and the mutation frequency calculated by dividing the number of colonies which grew on the drug containing media by the inoculum size.

[4] = Oral toxicity in mice; type: in vivo; settings: orally administered to mice, 1,000 mg/kg
[5] = system: Staphylococcus aureus 9203; assay: MIC against the strain of the intracellular killing assay; type: cell-based
[6] = system: Staphylococcus aureus 9203; assay: S. aureus intracellular killing assay in bovine PMN; type: cell-based; settings: overnight incubation (18 to 21 hours)
Experimental: The therapeutic effect of the rifamycin derivative (1) was determined by S. aureus intracellular killing assay in bovine polymorphonuclear neutrophil (PMN).
The procedure for PMN isolation was as described in Carlton et al. (Proc. Soc. Exp. Biol. Med. 142: 853-858 (1973)).
Bovine blood collected by venipuncture in 50-ml syringes containing 1.5% EDTA (pH 6.8) was centrifuged at 1,000×g for 25 min. The plasma-buffer layer and the top few millileters were discarded. The packed erythrocyte fraction was pooled in 0.8% NaCl-phosphate buffer (pH 6.8) and 10 ml was placed in 20 ml of sterile water for 40 seconds to lyse the erythrocytes. Immediately thereafter, 10 ml of a 2.7% NaCl-phosphate buffer solution was added to restore isotonicity. The leukocytes, consisting of ≦84% PMNs, were washed twice and suspended in HBSS. PMNs were adjusted to a final concentration of 10^7 cells per ml.
The intracellular killing assay was carried out as described in Sanchez et al. (Antimicrobial Agents and Chemotherapy 29(4): 634-638 (1986)).
Bovine blood PMNs and bacteria (1:1) were suspended in HBSS containing 10% heterologous bovine serum. The mixture was incubated for 90 minutes at 37° C. in Erlenmeyer flasks with rotational mixing at 110 rpm. Lysostaphin (5 μg/ml) was added to the mixture for the final 15 minutes of incubation. The infected PMNs were washed 3 times by low-speed centrifugation and suspended in HBSS. Cells were pipetted (1 ml) into each well of a six-well cluster dish (Bellco Glass, Inc., Vineland, N.J.) at 5×10^6 PMNs per well. PMNs were allowed to attach and form a monolayer for 10 minutes at 37° C. The supernatant fluid with unattached cells was discarded, and 2 ml of fresh HBSS was added to each well. The rifamycin derivatives to be tested were then added to the wells (one six-well plate per drug). These derivatives were dissolved in dimethylsulfoxide, and then diluted in HBSS to final solvent concentrations of 0.01% (vol/vol) or less.
After overnight incubation (18 to 21 hours) at 37° C. with 1% CO2, lysostaphin (5 μg/ml) was added to each well for 15 min (at 37° C.) to kill extracellular bacteria. The monolayers were washed with HBSS, and the cells were lysed by addition of 1 ml of water to each well. The number of viable bacteria was then estimated by plate counts on brain heart infusion agar. […] The results are shown in Table 2, wherein R is the alkyl group in the rifamycin derivative (1).

[7] = system: S. aureus 30857, a rifampin-resistant isolate; assay: MIC, microbroth dilution, strain 30857; type: cell-based, Staphylococcus aureus; settings: strain 30857
Experimental: as §1, §2, §3, §4

[8] = system: S. aureus 30857, a rifampin-resistant isolate; type: cell-based, Staphylococcus aureus; settings: strain 30857
Experimental: as §5, §1, §2, §3, §6, §7

[9] = system: S. aureus B83-1; assay: MIC, microbroth dilution, strain B83-1; type: cell-based, Staphylococcus aureus
Experimental: as §1, §2, §3, §4

[10] = system: Staphylococcus aureus 6097; assay: Dose titration in the mouse mastitis model (S. aureus-induced murine mastitis); type: in vivo; settings: mice, read 6 days after infection; for ED (mg/kg/d) Mastitis: 50% of mice without mastitis; for ED (mg/kg/d) Culture: 50% of mice with no bacteria cultured from gland
[11] = system: S. aureus ATCC 29213; assay: Mutation frequency for resistance, strain ATCC 29213; type: cell-based, Staphylococcus aureus
Experimental: as §5, §1, §2, §3, §6, §7

[12] = system: S. aureus 6097; assay: Mutation frequency for resistance, strain 6097; type: cell-based, Staphylococcus aureus
Experimental: as §5, §1, §2, §3, §6, §7

[13] = route IMM (intramammary), 1 hour after infection

| Compound | toxicity [4] | MIC [5] | % reduction ([6]; 1X MIC) | CFU/ml ISD (×10^3) ([6]; 1X MIC) | % reduction ([6]; 100X MIC) | CFU/ml ISD (×10^3) ([6]; 100X MIC) | ED (mg/kg/d) Mastitis [10, 13] | ED (mg/kg/d) Culture ([10]; route IMM (intramammary)) | ED (mg/kg/d) Culture ([10]; route SC (subcutaneous)) | ED (mg/kg/d) Mastitis ([10]; route SC (subcutaneous)) | further results |
| --- | --- | --- | --- | --- | --- | --- | --- | --- | --- | --- | --- |
| COC1/C=C/OC2(C)Oc3c(C)c(O)c4c(=O)c(c5oc6cc(N7CCN(CC(C)C)CC7)cc(O)c6nc-5c4c3C2=O)NC(=O)/C(C)=C\C=C\C(C)C(O)C(C)C(O)C(C)C(OC(C)=O)C1C (stereo not shown) [R = isobutyl] | did not show any toxicity | ≦0.03 μg/ml | 95.0% | 0.15 ± 0.06 CFU/ml (×10^3) | 100% | 0.0 CFU/ml (×10^3) | 0.3 mg/kg/day | 0.3 mg/kg/day | 3.5 mg/kg/day | 3.5 mg/kg/day | MIC [1]: 0.98 ng/mL (≈ 1.04 nM); MIC [2]: 1.9 ng/mL (≈ 2.02 nM); Mutation frequency ([3]; 1 μg/ml): 5.0 × 10^−8; Mutation frequency ([3]; 10 μg/ml): 5.2 × 10^−8; Mutation frequency ([3]; 100 μg/ml): 4.7 × 10^−8; MIC [7]: >4000 ng/mL; Mutation frequency ([8]; 1 μg/ml): >1.0 × 10^−7; Mutation frequency ([8]; 10 μg/ml): >1.0 × 10^−7; Mutation frequency ([8]; 100 μg/ml): >1.0 × 10^−7; MIC [9]: 1.9 ng/mL (≈ 2.02 nM); Mutation frequency ([11]; 1 μg/ml): 3.0 × 10^−8; Mutation frequency ([11]; 10 μg/ml): 3.7 × 10^−8; Mutation frequency ([11]; 100 μg/ml): 3.5 × 10^−8; Mutation frequency ([12]; 1 μg/ml): 9.5 × 10^−8; Mutation frequency ([12]; 10 μg/ml): 8.9 × 10^−8; Mutation frequency ([12]; 100 μg/ml): 9.9 × 10^−8 |
| COC1/C=C/OC2(C)Oc3c(C)c(O)c4c(=O)c(c5oc6cc(N7CCN(C(C)C)CC7)cc(O)c6nc-5c4c3C2=O)NC(=O)/C(C)=C\C=C\C(C)C(O)C(C)C(O)C(C)C(OC(C)=O)C1C (stereo not shown) [R = isopropyl] | did not show any toxicity | ≦0.03 μg/ml | 100% | 0.0 CFU/ml (×10^3) | 100% | 0.0 CFU/ml (×10^3) | 0.2 mg/kg/day | 0.2 mg/kg/day | 0.6 mg/kg/day | 0.4 mg/kg/day |  |
| CCN1CCN(c2cc(O)c3nc4c5c6c7c(C)c(O)c5c(=O)c(c-4oc3c2)NC(=O)/C(C)=C\C=C\C(C)C(O)C(C)C(O)C(C)C(OC(C)=O)C(C)C(OC)/C=C/OC(C)(O7)C6=O)CC1 (stereo not shown) [R = ethyl] | did not show any toxicity | ≦0.03 μg/ml | 97.0% | 0.09 ± 0.04 CFU/ml (×10^3) | 100% | 0.0 CFU/ml (×10^3) | 0.3 mg/kg/day | 0.4 mg/kg/day | 1.5 mg/kg/day | 0.4 mg/kg/day |  |
| COC1/C=C/OC2(C)Oc3c(C)c(O)c4c(=O)c(c5oc6cc(N7CCN(C8CC8)CC7)cc(O)c6nc-5c4c3C2=O)NC(=O)/C(C)=C\C=C\C(C)C(O)C(C)C(O)C(C)C(OC(C)=O)C1C (stereo not shown) [R = cyclopropyl] | did not show any toxicity |  |  |  |  |  |  |  |  |  |  |
| Cc1onc(-c2ccccc2Cl)c1C(=O)N[C@@H]1C(=O)N2[C@@H]1SC(C)(C)[C@@H]2C(=O)O [Cloxacillin, reference compound] |  |  |  |  | 0.0% | 5.9 ± 1.9 CFU/ml (×10^3) |  |  |  |  |  |
